In ChEMBL document CHEMBL4422664, “2-Benzoylbenzofuran derivatives possessing piperazine linker as anticancer agents” (Bioorg Med Chem Lett, 2019) one finds Activity, IC50 and viability data, which are given here for 1 compound.

The test system of assay [1] is A549. In words: Induction of apoptosis in human A549 assessed as early apoptotic cells at 1 uM after 24 to 48 hrs by Annexin V/propidium iodide staining-based flow cytometric analysis (reference value: 0.79%). The format is functional. Background: A flow cytometer gives signals particle by particle.
Assay [2] relates to A549. The experiment in a line: Induction of apoptosis in human A549 assessed as necrotic cells at 1 uM after 24 to 48 hrs by Annexin V/propidium iodide staining-based flow cytometric analysis (reference value: 0.16%). In kind it is functional.
In assay [3] the test system is A549. The experiment in a line: Induction of apoptosis in human A549 assessed as early apoptotic cells after 24 to 48 hrs by Annexin V/propidium iodide staining-based flow cytometric analysis. In kind it is functional, cell-based.
For assay [4], the system named is A549. In words: Induction of apoptosis in human A549 assessed as early apoptotic cells at 2 uM after 24 to 48 hrs by Annexin V/propidium iodide staining-based flow cytometric analysis (reference value: 0.79%). In kind it is functional.
The next assay deals with MCF7. The experiment in a line: Cytotoxicity against human MCF7 assessed as reduction in cell viability after 48 hrs by MTT assay. In kind it is functional, cell-based. The following applies: MCF7, 48 h. (In general: Tetrazolium dyes change colour on reduction, which living cells bring about.)
Assay [5] has as its system A549. The experiment in a line: Cytotoxicity against human A549 assessed as reduction in cell viability after 48 hrs by MTT assay. In kind it is functional, cell-based. The following applies: A549, 48 h.
In a further assay the test system is HCT-116. In words: Cytotoxicity against human HCT116 assessed as reduction in cell viability after 48 hrs by MTT assay. In kind it is functional, cell-based. Particulars: HCT-116, 48 h.
The next assay deals with HeLa. In words: Cytotoxicity against human HeLa assessed as reduction in cell viability after 48 hrs by MTT assay. In kind it is functional, cell-based.
In a further assay the test system is SGC-7901. The experiment in a line: Cytotoxicity against human SGC7901 assessed as reduction in cell viability after 48 hrs by MTT assay. In kind it is functional, cell-based. Particulars: SGC-7901, 48 h.
Assay [6] concerns A549. The experiment in a line: Induction of apoptosis in human A549 assessed as viable cells at 1 uM after 24 to 48 hrs by Annexin V/propidium iodide staining-based flow cytometric analysis (reference value: 98.5%). In kind it is functional. The following applies: read-out: Activity.
Assay [7] concerns A549. In words: Induction of apoptosis in human A549 assessed as late apoptotic cells at 1 uM after 24 to 48 hrs by Annexin V/propidium iodide staining-based flow cytometric analysis (reference value: 0.54%). The format is functional.
In assay [8] the test system is A549. In words: Induction of apoptosis in human A549 assessed as late apoptotic cells at 2 uM after 24 to 48 hrs by Annexin V/propidium iodide staining-based flow cytometric analysis (reference value: 0.54%). The format is functional.
The subject of assay [9] is A549. The experiment in a line: Induction of apoptosis in human A549 assessed as viable cells at 2 uM after 24 to 48 hrs by Annexin V/propidium iodide staining-based flow cytometric analysis (reference value: 98.5%). The following applies: read-out: Activity. The format is functional.
A further assay has as its system L02. The experiment in a line: Cytotoxicity against human L02 assessed as reduction in cell viability after 48 hrs by MTT assay. In kind it is cell-based. The following applies: L02, 48 h.
Assay [10] relates to A549. The experiment in a line: Induction of apoptosis in human A549 assessed as necrotic cells at 2 uM after 24 to 48 hrs by Annexin V/propidium iodide staining-based flow cytometric analysis (reference value: 0.16%). The format is functional.

As to `CCN(CC)c1ccc2cc(C(=O)c3ccc(N4CCN(C(=O)CN5CCN(Cc6ccc(/C=C/C(=O)OC)cc6)CC5)CC4)cc3)oc2c1`, the Activity is 7.95% in the assay with A549 [1]; 0.82% in the assay on A549 [2]; “Dose-dependent effect” in the assay on A549 [3]; 43.1% with A549 [4]; 7.98% in the assay on A549 [7]; 43.8% with A549 [8]. Also, in the assay on A549 [10], the Activity is recorded as 3.87%. For the same compound, the IC50 was 8.73 µM in the assay with MCF7; 2.81 µM in the assay on A549 [5]; 9.92 µM in the assay with HCT-116; 3.04 µM in the assay on HeLa; 0.74 µM with SGC-7901; above 100 µM in the assay with L02. In addition, in the assay with A549 [6], the viability at 1 µM amounted to 83.3%. For the same compound, the viability at 2 µM in the assay with A549 [9] was 9.27%.

One may read the IC50 as the concentration needed to halve the response being measured.
